Patent US12661415B2, “Isoindolinone compounds and imaging agents for imaging Huntingtin protein” (CHDI Foundation, Inc., priority 2021, dated 2026)

Columns and labels:
[1] = molecular target: T1, MBP-HTT(1-89)Q46-His(6×) (Exon1-Q46) protein aggregates (Homo sapiens, UniProt P42858, INS38QQQQQQQQQQQQQQQQQQQQQQQQQ); assay: Exon1-Q46 radioligand binding assay (RBA); conditions: aggregated Exon1-Q46 1 μM; 0.3 nM ligand [3H3-methyl]-5-((5-methoxypyridin-2-yl)methoxy)-2-(pyrazin-2-yl)benzo[d]oxazole; 60 minutes at 37° C.; read-out: Potency Range (IC50)
T1 construct: MBP-HTT(1-89)Q46-His(6×); His(6×) (C); made in house
T1 sequence (P42858 with tags, fused parts or gaps with the stated changes): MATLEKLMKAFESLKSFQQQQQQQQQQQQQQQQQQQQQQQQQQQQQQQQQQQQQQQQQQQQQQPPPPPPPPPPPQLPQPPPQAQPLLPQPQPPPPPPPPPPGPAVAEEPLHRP
Method: Exon1-Q46 Radioligand Binding Assay
For radioligand binding assays (RBA) MBP-HTT(1-89)Q46-His(6×) (“Exon1-Q46”) protein was generated based on a previous publication (Scherzinger et al. Cell, Vol. 90, 549-558, Aug. 8, 1997). For experiments 30 μM MBP-Exon1-Q46 was incubated with 150 μg/mL thrombin in assay buffer (150 mM NaCl, 50 mM Tris pH 8.0) and 2 mM CaCl2 for 16 hours at 37° C. Aggregated Exon1-Q46 was pelleted by centrifugation for 5 minutes at 13,000 rpm in a bench top centrifuge and re-dissolved in the same volume of assay buffer. Test compounds were prepared by titration in DMSO at 11 concentrations from 63 μM to 2 nM. For the RBA, Exon1-Q46 protein aggregates and test compounds were pre-incubated in assay buffer for 20 minutes at room temperature, in 100 μL/well in a 96-well plate (pp, round bottom). Then, ligand was added in 50 μL/well and incubated for 60 minutes at 37° C. Final assay concentrations were 1 μM to 30 pM test compound, 1 μM Exon1-Q46 protein (equivalent monomer concentration) and 0.3 nM ligand [^3H3-methyl]-5-((5-methoxypyridin-2-yl)methoxy)-2-(pyrazin-2-yl)benzo[d]oxazole. Samples were transferred onto GF/B filter plates and washed 2× with 200 μL PBS using a Filtermate Harvester. After drying filter plates for 1 hour at 55° C., the back of the plates were sealed with foil and 30 μL/well scintillation fluid (Packard MicroScint 40) added, incubated for 15 minutes in the dark and counted in a MicroBeta reader. For analysis, replicate data from independent assay plates were normalized towards 0% and 100% inhibition using control wells of vehicle (0% inhibition) and 1 μM unlabelled [^3H3-methyl]-5-((5-methoxypyridin-2-yl)methoxy)-2-(pyrazin-2-yl)benzo[d]oxazole (100% inhibition). IC50 values were determined with a sigmoidal inhibition model with four variables (top, bottom, slope, IC50) in a global fit using the normalized replicate data.
The results for various example compounds were as provided in the table below (+++<100 nM; ++100−500 nM; +>500 nM; ND: not determined): […]

[2] = Unbound brain fraction (fu,brain) in mouse brain by equilibrium dialysis; format: in vitro ADME; conditions: 20% mouse brain homogenate, 5 μM, equilibrium dialysis 6 h at 37° C., average of triplicate
Method: Compounds were tested for unbounded brain fraction (or free fraction in brain, fu,brain). It is an accepted standard in the CNS PET imaging field that compounds with low unbound fraction in brain (<5%) likely have high non-specific binding background that is undesirable for the detection of target binding. As a result, fu,brain is an important property in the design of PET ligands for brain imaging [see Zhang et al., Design and selection parameters to accelerate the discovery of novel central nervous system positron emission tomography (PET) ligands and their application in the development of a novel phosphodiesterase 2A PET ligand. J Med Chem 2013, 56 (11), 4568-79; Liu et al., Imaging Mutant Huntingtin Aggregates: Development of a Potential PET Ligand. J Med Chem 2020, 63 (15), 8608-8633].
Determining fu,brain in Mouse Brain by Equilibrium Dialysis. Dialysis membranes (12-14 kDa) (HTDialysis, Connecticut) were soaked in phosphate buffer (10 mM potassium phosphate and 0.8% sodium chloride buffer, pH 7.4 at 37° C.) for a minimum of 1 h, at this time ethanol was added (final concentration of 20% v/v) and membranes continued to soak for 30 min Mouse brain tissue was diluted in phosphate buffer in a […] (w/v) and homogenised using a Precellys 24 (Stretton Scientific, UK) to achieve a final concentration of 20% brain homogenate.
Test compounds prepared as DMSO stocks at 0.5 mM are diluted into brain homogenate to achieve 5 μM final substrate concentration (1% DMSO) and a t=0 sample was prepared by sampling 50 μL of into 400 μL of quench solution (Acetonitrile containing 0.1% formic acid and sulfisoxazole/tolbutamide/imipramine/labetalol 200 nM). Samples were matrix matched with the addition of 50 μL of assay buffer. The HTDialysis Teflon blocks (HTDialysis, Connecticut) were assembled with pre-soaked membrane between each receiver and donor well and clamped in the stainless steel pressure plate (HTDialysis, Connecticut). The lower compartment (acceptor side) was dosed with 120 μL of buffer and the upper compartment (donor side) was dosed with 120 μL of compound in homogenate. All test compounds and controls were completed in triplicate. The HT dialysis plate was sealed and incubated for 6 h at 37° C. shaking at 250 rpm.
Following the incubation, 50 μL of sample was removed from all donor and acceptor wells and transferred into a quench plate containing 400 μL of quench solution. All samples were matrix matched with 50 μL of the alternate blank matrix. Analytical samples were diluted 1:1 with water using the Janus Robot and analysed by LC-MS/MS.
Peak areas of donor and acceptor compartments were compared to determine percent unbound (% fu) and the average of triplicate measurements was reported. Reference T0 sample was used to calculate sample recovery (%). Control compounds were compared with historic and literature values to ensure assay functionality.

| Compound | IC50 [1] | Mean Free Brain Fraction (%) [2] |
| --- | --- | --- |
| Cn1nc(N2Cc3cc(OCc4ccc(F)cn4)ccc3C2=O)ccc1=O [Compound 1-1, 5-((5-Fluoropyridin-2-yl)methoxy)-2-(1-methyl-6-oxo-1,6-dihydropyridazin-3-yl)isoindolin-1-one] | < 100 nM | 12.0% |
| COc1cc(COc2ccc3c(c2)CN(c2ccc(=O)n(C)n2)C3=O)ncc1F [Compound 3-1, 5-[(5-Fluoro-4-methoxypyridin-2-yl)methoxy]-2-(1-methyl-6-oxo-1,6-di-hydropyridazin-3-yl)-2,3-dihydro-1H-isoindol-1-one] | < 100 nM | 9.7% |
| COc1cnc(COc2ccc3c(c2)CN(c2ccc(=O)n(C)n2)C3=O)cc1F [Compound 1-14, 5-[(4-Fluoro-5-methoxypyridin-2-yl)methoxy]-2-(1-methyl-6-oxo-1,6-dihydropyridazin-3-yl)-2,3-dihydro-1H-isoindol-1-one] | – | 12.0% |
| CC(F)Oc1ccc(COc2ccc3c(c2)CN(c2ccc(=O)n(C)n2)C3=O)nc1 (stereo not shown) [Compound 1-10, 5-{[5-(1-Fluoroethoxy)pyridin-2-yl]methoxy}-2-(1-methyl-6-oxo-1,6-dihydropyridazin-3-yl)-2,3-dihydro-1H-isoindol-1-one] | < 100 nM | 3.8% |
| [2H]C([2H])(Oc1ccc(COc2ccc3c(c2)CN(c2ccc(=O)n(C)n2)C3=O)nc1)C([2H])([2H])OS(=O)(=O)c1ccc(C)cc1 [Compound 1-9, 2-{[6-({[2-(1-Methyl-6-oxo-1,6-dihydropyridazin-3-yl)-1-oxo-2,3-dihydro-1H-isoindol-5-yl]oxy}methyl)pyridin-3-yl]oxy}(1,1,2,2-^2H4)ethyl 4-methylbenzene-1-sulfonate] | < 100 nM | – |
| COc1cnc(COc2ccc3c(c2)CN(c2ccc(=O)n(C)n2)C3=O)cc1Cl [Compound 1-11, 5-[(4-Chloro-5-methoxypyridin-2-yl)methoxy]-2-(1-methyl-6-oxo-1,6-dihydropyridazin-3-yl)-2,3-dihydro-1H-isoindol-1-one] | < 100 nM | 1.6% |
| Cn1nc(N2Cc3cc(OCc4ccc(I)cn4)ccc3C2=O)ccc1=O [Compound 1-3, 5-[(5-Iodopyridin-2-yl)methoxy]-2-(1-methyl-6-oxo-1,6-dihydropyridazin-3-yl)-2,3-dihydro-1H-isoindol-1-one] | < 100 nM | 1.2% |
| COc1ccc(COc2ccc3c(c2)CN(c2ccc(=O)n(C)n2)C3)nc1 [Comparative Compound 1, reference compound] | – | 1.3% |
| Cn1nc(N2Cc3cc(O)ccc3C2=O)ccc1=O [Compound 1-5, 5-Hydroxy-2-(1-methyl-6-oxo-1,6-dihydropyridazin-3-yl)-2,3-dihydro-1H-isoindol-1-one] | < 100 nM | – |

Second part, the compound after the results:

| IC50 [1] | Mean Free Brain Fraction (%) [2] | Compound |
| --- | --- | --- |
| < 100 nM | – | Cn1nc(N2Cc3cc(OCc4ccc(O)cn4)ccc3C2=O)ccc1=O [Compound 4-1, 5-[(5-Hydroxypyridin-2-yl)methoxy]-2-(1-methyl-6-oxo-1,6-dihydropyridazin-3-yl)-2,3-dihydro-1H-isoindol-1-one] |
| < 100 nM | 15.5% | COc1ccc(COc2cc3c(cc2F)CN(c2cn(C)c(=O)cn2)C3=O)nc1 [Compound 14-1, 5-Fluoro-6-((5-methoxypyridin-2-yl)methoxy)-2-(4-methyl-5-oxo-4,5-dihydropyrazin-2-yl)isoindolin-1-one] |
| < 100 nM | 37.0% | COc1ccc(COc2cnc3c(c2)CN(c2ccc(=O)n(C)n2)C3=O)nc1 [Compound 12-5, 6-{3-[(5-Methoxypyridin-2-yl)methoxy]-7-oxo-5H,6H,7H-pyrrolo[3,4-b]pyridin-6-yl}-2-methyl-2,3-dihydropyridazin-3-one] |
| < 100 nM | 50.0% | Cn1nc(N2Cc3cc(OCc4ccc(OCCF)cn4)cnc3C2=O)ccc1=O [Compound 12-6, 6-(3-{[5-(2-Fluoroethoxy)pyridin-2-yl]methoxy}-7-oxo-5H,6H,7H-pyrrolo[3,4-b]pyridin-6-yl)-2-methyl-2,3-dihydropyridazin-3-one] |
| < 100 nM | 0.7% | COc1ccc(COc2cc3c(cc2F)CN(c2cnc(OC)cn2)C3=O)nc1 [Compound 14-2, 5-Fluoro-2-(5-methoxypyrazin-2-yl)-6-((5-methoxypyridin-2-yl)-methoxy)isoindolin-1-one] |
| < 100 nM | 6.2% | COc1ccc(COc2cc(F)c3c(c2)C(=O)N(c2ccc(=O)[nH]n2)C3)nc1 [Compound 13-3, 4-Fluoro-6-[(5-methoxy-2-pyridyl)methoxy]-2-(6-oxo-1H-pyridazin-3-yl)isoindolin-1-one] |
| < 100 nM | 5.3% | COc1ccc(COc2ccc3c(c2F)CN(c2ccc(=O)n(C)n2)C3=O)nc1 [Compound 12-2, 4-Fluoro-5-[(5-methoxypyridin-2-yl)methoxy]-2-(1-methyl-6-oxo-1,6-dihydropyridazin-3-yl)-2,3-dihydro-1H-isoindol-1-one] |
| < 100 nM | – | [2H]C([2H])(F)C([2H])([2H])Oc1ccc(COc2cnc3c(c2)CN(c2ccc(=O)n(C)n2)C3=O)nc1 [Compound 12-9, 6-[3-([5-[2-Fluoro(1,1,2,2-^2H4)ethoxy]pyridin-2-yl]methoxy)-7-oxo-5H,6H,7H-pyrrolo[3,4-b]pyridin-6-yl]-2-methyl-2,3-dihydropyridazin-3-one] |
| < 100 nM | – | [2H]C([2H])(F)C([2H])([2H])Oc1ccc(COc2ccc3c(c2)CN(c2ccc(=O)[nH]n2)C3=O)nc1 [Compound 9-2, 5-((5-(2-Fluoroethoxy-1,1,2,2-^2H4)pyridin-2-yl)methoxy)-2-(6-oxo-1,6-dihydropyridazin-3-yl)isoindolin-1-one] |
| < 100 nM | 5.2% | COc1cc(COc2ccc3c(c2)CN(c2ccc(=O)[nH]n2)C3=O)ncc1F [Compound 9-3, 5-((5-Fluoro-4-methoxypyridin-2-yl)methoxy)-2-(6-oxo-1,6-dihydropyridazin-3-yl)isoindolin-1-one] |
| < 100 nM | 9.8% | COc1ccc(COc2cc3c(cc2F)CN(c2ccc(=O)n(C)n2)C3=O)nc1 [Compound 12-4, 5-Fluoro-6-[(5-methoxypyridin-2-yl)methoxy]-2-(1-methyl-6-oxo-1,6-dihydropyridazin-3-yl)-2,3-dihydro-1H-isoindol-1-one] |
| 100 to 500 nM | – | COc1ccc(COc2ccc3c(c2)CN(Cc2ccc(OC)nc2)C3=O)nc1 [Compound 7-1, 5-[(5-Methoxypyridin-2-yl)methoxy]-2-[(6-methoxypyridin-3-yl)methyl]-2,3-dihydro-1H-isoindol-1-one] |
